Earlier results in US8182834B2, “Ternary non-lamellar lipid compositions” (Camurus AB, priority 2004, dated 2012).

CCCCCCCC/C=C\CCCCCCCC(=O)OCC(O)CO (centres unmarked) [glycerol monooleate]
equilibrium water solubility (room temperature): ~10^−7 M
Equilibrium solubility concentration (water, 25 ° C.): ~10^−7 M
